Usually IC50 stands for the concentration at which inhibition is half-maximal. A word on the EC50: it is the midpoint of the concentration-response curve. The term Ki denotes a dissociation constant, usually derived from enzyme kinetics or from competition with a known ligand. A lower Ki goes with tighter binding.

This note sets out measurements from ChEMBL document CHEMBL3826905, “1'-Homonucleosides and their structural analogues: A review” (Eur J Med Chem, 2016).

A short description of assay [1]: Inhibition of Escherichia coli methionyl-tRNA synthetase assessed as decrease in [35S]methionyl-tRNA generation.
A further assay deals with Isoleucine--tRNA ligase (Escherichia coli K-12, UniProt P00956). Description: Inhibition of Escherichia coli isoleucyl-tRNA synthetase assessed as decrease in [3H]isoleucyl-tRNA generation.
Sequence of Isoleucine--tRNA ligase (P00956 whole entry): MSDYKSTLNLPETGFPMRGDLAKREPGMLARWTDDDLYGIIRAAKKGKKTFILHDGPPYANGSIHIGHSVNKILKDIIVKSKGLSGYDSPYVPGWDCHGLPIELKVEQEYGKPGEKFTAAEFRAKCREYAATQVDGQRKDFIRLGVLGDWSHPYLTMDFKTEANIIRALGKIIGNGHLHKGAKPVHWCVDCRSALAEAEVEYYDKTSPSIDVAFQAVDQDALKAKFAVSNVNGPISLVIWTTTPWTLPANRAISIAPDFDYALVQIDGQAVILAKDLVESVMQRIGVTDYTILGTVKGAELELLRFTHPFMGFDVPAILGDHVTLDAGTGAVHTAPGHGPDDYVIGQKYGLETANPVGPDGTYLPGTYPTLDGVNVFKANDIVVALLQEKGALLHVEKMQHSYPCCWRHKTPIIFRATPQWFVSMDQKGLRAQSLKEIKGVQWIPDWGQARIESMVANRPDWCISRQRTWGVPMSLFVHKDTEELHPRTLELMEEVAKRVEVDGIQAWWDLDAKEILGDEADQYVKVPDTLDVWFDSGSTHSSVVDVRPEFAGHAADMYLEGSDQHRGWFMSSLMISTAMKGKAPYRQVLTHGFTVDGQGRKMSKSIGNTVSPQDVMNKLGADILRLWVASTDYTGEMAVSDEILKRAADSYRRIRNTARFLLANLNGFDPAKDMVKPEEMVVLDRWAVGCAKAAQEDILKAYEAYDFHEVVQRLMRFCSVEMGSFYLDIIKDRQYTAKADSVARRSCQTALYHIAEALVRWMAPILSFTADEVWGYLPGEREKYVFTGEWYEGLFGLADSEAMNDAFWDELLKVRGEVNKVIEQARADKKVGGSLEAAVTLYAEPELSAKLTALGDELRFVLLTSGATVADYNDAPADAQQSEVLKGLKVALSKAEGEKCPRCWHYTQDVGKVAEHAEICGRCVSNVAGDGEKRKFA
The next assay relates to MOLT-4. Description: Cytostatic activity against human Molt4/C8 cells. In kind it is functional, cell-based. The following applies: Homo sapiens, MOLT-4.
A short description of assay [2]: Cytostatic activity against mouse L1210/0 cells. In kind it is functional, cell-based. The following applies: Mus musculus, L1210/0.
For a further assay, the system named is CCRF-CEM. Description: Cytostatic activity against human CEM/0 cells. In kind it is functional, cell-based.
In another assay the test system is Influenza A virus. Description: Antiviral activity against Influenza A virus. Type of assay: functional, organism-based.
Assay [3] has as its system Human immunodeficiency virus 1. Description: Antiviral activity against HIV1. Type of assay: functional, organism-based.
Assay [4] relates to Human immunodeficiency virus 2. Description: Antiviral activity against HIV2. Type of assay: functional, organism-based.
The nature of assay [5]: Antiproliferative activity against mouse L1210/0 cells after 48 hrs by trypan blue staining method. The following applies: L1210/0, 48 h. Type of assay: functional, cell-based.
The next assay deals with Hepatitis C virus. Description: Antiviral activity against Hepatitis C virus. In kind it is functional, organism-based, Hepacivirus hominis.
Assay [6] deals with T1, Inosine-adenosine-guanosine-nucleoside hydrolase (Trypanosoma brucei brucei, UniProt O15727).
T1 sequence (O15727 whole entry): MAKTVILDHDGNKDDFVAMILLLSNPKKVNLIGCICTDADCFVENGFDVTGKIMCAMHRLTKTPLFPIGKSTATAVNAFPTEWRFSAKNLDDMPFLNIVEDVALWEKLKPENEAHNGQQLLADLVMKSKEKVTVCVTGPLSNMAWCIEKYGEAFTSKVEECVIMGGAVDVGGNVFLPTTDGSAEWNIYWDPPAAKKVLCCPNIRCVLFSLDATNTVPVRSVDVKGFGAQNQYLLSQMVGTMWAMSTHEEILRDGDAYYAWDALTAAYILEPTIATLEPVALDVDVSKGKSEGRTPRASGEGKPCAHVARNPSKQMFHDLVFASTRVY
Description: Inhibition of Trypanosoma brucei brucei inosine-adenosine-guanosine nucleoside hydrolase expressed in Escherichia coli.

For assay [7], the target named is T2, Inosine-uridine preferring nucleoside hydrolase (Crithidia fasciculata, UniProt Q27546).
T2 sequence (Q27546 whole entry): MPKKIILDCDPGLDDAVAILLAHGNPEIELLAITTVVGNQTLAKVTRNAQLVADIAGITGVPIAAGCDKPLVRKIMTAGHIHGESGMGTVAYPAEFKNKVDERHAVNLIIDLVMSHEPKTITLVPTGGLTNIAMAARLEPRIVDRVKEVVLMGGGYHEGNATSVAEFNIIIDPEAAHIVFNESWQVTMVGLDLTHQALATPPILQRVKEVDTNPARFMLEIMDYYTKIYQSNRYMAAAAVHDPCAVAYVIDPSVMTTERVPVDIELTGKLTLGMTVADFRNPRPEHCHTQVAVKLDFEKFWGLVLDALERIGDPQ
Description: Inhibition of Crithidia fasciculata inosine-uridine nucleoside hydrolase expressed in Escherichia coli using p-nitrophenyl beta-D-ribofuranoside as substrate by xanthine oxidase coupled enzyme assay.

Structures are written as SMILES. In brackets after ≈: the same amount, converted by molar mass.

For the compound `CSCC[C@H](N)C(=O)OC[C@H]1O[C@@H](CCn2cnc3c(N)ncnc32)[C@H](O)[C@@H]1O`, in assay [1], the IC50 amounted to 8.3 µM.

In the case of `CSCC[C@H](N)C(=O)N(O)C[C@H]1O[C@@H](Cn2cnc3c(N)ncnc32)[C@H](O)[C@@H]1O`, in [1], the IC50 worked out at 3.6 µM.

`CC[C@H](C)[C@H](N)C(=O)OC[C@H]1O[C@@H](Cn2cnc3c(N)ncnc32)[C@H](O)[C@@H]1O`: the IC50 at Isoleucine--tRNA ligase is above 128 µM.

As for `CSCC[C@H](N)C(=O)OC[C@H]1O[C@@H](n2cnc3c(N)ncnc32)[C@H](O)[C@@H]1O`, the concentration for half-maximal inhibition (IC50) in assay [1] was 5 µM.

Regarding `CC[C@H](C)[C@H](N)C(=O)N(O)C[C@H]1O[C@@H](Cn2cnc3c(N)ncnc32)[C@H](O)[C@@H]1O`, the half-inhibitory concentration (IC50) on Isoleucine--tRNA ligase was above 128 µM.

On to `CSCC[C@H](N)C(=O)OC[C@H]1O[C@@H](Cn2cnc3c(NCc4ccccc4)ncnc32)[C@H](O)[C@@H]1O`, for which the IC50 in assay [1] was 3.6 µM.

For `CSCC[C@H](N)C(=O)OC[C@H]1O[C@@H](Cn2cnc3c(N)ncnc32)[C@H](O)[C@@H]1O`, the half-inhibitory concentration (IC50) in assay [1] turned out to be 3.6 µM.

As for `CCOc1ncnc2c1ncn2C[C@@H]1C[C@H](CO)c2ccccc21`, the IC50 (in the assay on MOLT-4; in assay [2]; in the assay with CCRF-CEM) was 24 µg/mL (≈ 74 µM) each time.

As to `CCCNc1ncnc2c1ncn2C[C@@H]1C[C@H](CO)c2ccccc21`, the IC50 (in the assay with MOLT-4; in assay [2]; in the assay on CCRF-CEM) was 24 µg/mL (≈ 71.1 µM) each time.

As for `Cc1ccc(-c2ncnc3c2ncn3C[C@@H]2C[C@H](CO)c3ccccc32)cc1`, the IC50 (with MOLT-4; in assay [2]; in the assay with CCRF-CEM) was 1.4 µg/mL (≈ 3.78 µM) each time.

Regarding `Nc1ncnc2c1ncn2C[C@@H]1C[C@H](CO)c2ccccc21`, the IC50 (in the assay with MOLT-4; in assay [2]; in the assay with CCRF-CEM) was 24 µg/mL (≈ 81.3 µM) throughout.

As to `Nc1ncnc2c1ncn2C[C@H]1C[C@H](O)[C@@H](CO)O1`, the IC50 in the assay on Influenza A virus was 49.2 µg/mL (≈ 185 µM).

Take `CC1(C)[C@@H](Cn2cnc3c(N)nc(N)nc32)CC[C@@]1(C)CO`: the half-maximal effective concentration (EC50) in assay [3] and in [4] was 4 µg/mL (≈ 13.1 µM) each time.

`COc1ncnc2c1ncn2C[C@@H]1C[C@H](CO)c2ccccc21`: the half-inhibitory concentration (IC50) (in the assay on MOLT-4; in assay [2]; in the assay with CCRF-CEM) was 24 µg/mL (≈ 77.3 µM) throughout.

As for `OC[C@H]1C[C@@H](Cn2cnc3c(O)ncnc32)c2ccccc21`, the concentration for half-maximal inhibition (IC50) (with MOLT-4; in assay [2]; in the assay with CCRF-CEM) was 24 µg/mL (≈ 81 µM) throughout.

Turning to `OC[C@@H]1C=C[C@H](Cn2cnc3c(O)ncnc32)C1`, in assay [5], the IC50 was above 200 µM.

`Cc1cn(C[C@H]2C[C@H](OCc3ccccc3)[C@@H](COCc3ccccc3)O2)c(=O)[nH]c1=O` displayed a half-inhibitory concentration (IC50) with Influenza A virus of 70.3 µg/mL (≈ 161 µM).

For the compound `Nc1ncnc2c1ncn2C[C@H]1C=C[C@@H](CO)C1`, the IC50 in assay [5] is above 200 µM.

`Nc1nc2c(ncn2C[C@H]2C=C[C@@H](CO)C2)c(=O)[nH]1` returned a 50% inhibitory concentration (IC50) in assay [5] above 200 µM.

As for `O[C@H]1C[C@@]2(Cn3cnc4c(Cl)ncnc43)O[C@@H]1c1ccccc12`, the concentration for a half-maximal effect (EC50) with Hepatitis C virus was 45.1 µM.

Turning to `Nc1ncnc2c1N=CC2[C@@H]1N[C@H](CO)[C@@H](O)[C@H]1O` (stereo partly drawn), the inhibition constant Ki in [6] came out at 0.003 µM; in assay [7] it was 0.007 µM.

In turn, `O=c1[nH]cnc2c1ncn2C[C@H]1C[C@H](O)[C@@H](CO)O1` yielded an IC50 with Influenza A virus of 25.2 µg/mL (≈ 94.6 µM).

The compound `OCC12C=CC(Cn3cnc4c(Cl)ncnc43)(O1)c1ccccc12` (stereo not drawn) returned a concentration for a half-maximal effect (EC50) in the assay on Hepatitis C virus of 45.1 µM.

`CC1(C)[C@@H](Cn2cnc3c(NC4CC4)nc(N)nc32)CC[C@@]1(C)CO` came in with an IC50 in [5] of 13.9 µg/mL.

In turn, `OC[C@@]12O[C@@](Cn3cnc4c(Cl)ncnc43)(c3ccccc31)[C@H](O)[C@@H]2O` displayed an EC50 with Hepatitis C virus of 45.1 µM.

In the assay on Influenza A virus, `Nc1ncnc2c1ncn2C[C@H]1C[C@H](OCc2ccccc2)[C@@H](COCc2ccccc2)O1` registered a 50% inhibitory concentration (IC50) of 39.9 µg/mL (≈ 89.6 µM).

Take `Cn1ncc2c1[C@@H](CO[Si](c1ccccc1)(c1ccccc1)C(C)(C)C)C[C@H]2Cn1cnc2c(O)ncnc21`: the concentration for half-maximal inhibition (IC50) (in the assay with MOLT-4; in assay [2]; in the assay on CCRF-CEM) was 3.2 µg/mL (≈ 5.94 µM) throughout.
